The values that follow are results of earlier work, collected in US20110229418A1, “Compositions and Methods of Treating and Preventing Lung Cancer” (priority 2010, published 2011).

Series [1] relates to lung cancer cell. To be noted: in vivo.
Series [2] has as its system Lewis lung LLC1 cells. The following applies: mice injected with Lewis lung LLC1 cells, orally administered.
The conditions of series [3]: patients with type 2 diabetes, compared with those that did not use metformin.
Series [4] deals with tobacco carcinogen-induced lung tumorigenesis. The following applies: mice.
Series [5] has as its system lung cancer cell. To be noted: in vitro.
In series [6] the test system is AMP activated protein kinase (AMPK) pathway.
The conditions of series [7]: long-term treatment.
Series [8] concerns human lung cancer cells.

Like-named read-outs stand apart in the source and are kept apart here.

As to `CN(C)C(=N)N=C(N)N` [metformin], the “lung cancer cell growth” value in series [1] and in series [5] was “inhibited” in each case. The tumor growth result in series [2] (control diet) is “no effect on tumor growth”; in series [2] (high-energy diet), “reduce tumor growth”. Moreover, the cancer mortality result in series [3] is “lower cancer mortality”. The “tobacco carcinogen-induced lung tumorigenesis” value in series [4] was “prevents tobacco carcinogen-induced lung tumorigenesis”. For the same compound, the AMPK pathway activation result in series [6] is recorded as “activates the AMP activated protein kinase (AMPK) pathway”. Further, in series [7], the adverse effects result is “few adverse effects”. Moreover, the “sensitization to ionizing radiation” value in series [8] is recorded as “sensitizes human lung cancer cells to ionizing radiation”.
